# Measurements reported in PMC4392179 (Nature medicine, 2015).
# Columns and labels:
# AIM2 inflammasome = biological target: T1, AIM2 inflammasome (Mus musculus, UniProt Q91VJ1); test: AIM2 inflammasome activation: BMDM stimulated with LPS and transfected Poly; type: cell-based
# T1 sequence (Q91VJ1 1-354): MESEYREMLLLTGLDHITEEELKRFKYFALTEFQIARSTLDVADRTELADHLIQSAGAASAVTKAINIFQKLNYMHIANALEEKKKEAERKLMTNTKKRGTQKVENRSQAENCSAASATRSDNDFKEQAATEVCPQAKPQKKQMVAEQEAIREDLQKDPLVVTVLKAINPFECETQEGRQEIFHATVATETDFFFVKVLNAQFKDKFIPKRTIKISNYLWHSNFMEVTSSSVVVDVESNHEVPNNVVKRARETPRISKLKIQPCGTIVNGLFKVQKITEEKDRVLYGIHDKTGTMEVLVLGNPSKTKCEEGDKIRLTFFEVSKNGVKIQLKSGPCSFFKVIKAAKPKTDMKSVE
# Aqueous solubility = type: physicochemical; details: sodium salt
# NLRP1 [1] = test: Nlrp1a Q593P activating mutation mice; type: in vivo; details: NLRP1 mutant mice, 20 mg/kg i.p. every second day for 9 days; P = 0.7
# CYP 2C19 = CYP 2C19 (Homo sapiens, UniProt P33261); test: CYP inhibition in human liver microsomes, substrate cocktail; details: 10 µM
# NLRC4 = NLRC4 (Mus musculus, UniProt Q3UP24); test: NLRC4 inflammasome activation: BMDM stimulated with LPS and S. typhimurium; type: cell-based; details: for NLRC4-stimulated IL-1β secretion / NLRC4-stimulated TNF-α secretion / expression of pro-IL-1β (and pro-caspase-1) in cell lysates: LPS and S. typhimurium; for NLRC4-stimulated IL-1β secretion / NLRC4-stimulated TNF-α secretion: MCC950 up to 10 µM, parthenolide 10 µM
# Ca2+ flux = test: ATP induced Ca2+ flux in BMDM; details: WT or Ice−/− BMDM
# NLRP1 [2] = type: cell-based
# CYP 1A2 = biological target: T2, CYP 1A2 (Homo sapiens, UniProt P05177); test: CYP inhibition in human liver microsomes, substrate cocktail; details: 10 µM
# T2 sequence (P05177 1-516): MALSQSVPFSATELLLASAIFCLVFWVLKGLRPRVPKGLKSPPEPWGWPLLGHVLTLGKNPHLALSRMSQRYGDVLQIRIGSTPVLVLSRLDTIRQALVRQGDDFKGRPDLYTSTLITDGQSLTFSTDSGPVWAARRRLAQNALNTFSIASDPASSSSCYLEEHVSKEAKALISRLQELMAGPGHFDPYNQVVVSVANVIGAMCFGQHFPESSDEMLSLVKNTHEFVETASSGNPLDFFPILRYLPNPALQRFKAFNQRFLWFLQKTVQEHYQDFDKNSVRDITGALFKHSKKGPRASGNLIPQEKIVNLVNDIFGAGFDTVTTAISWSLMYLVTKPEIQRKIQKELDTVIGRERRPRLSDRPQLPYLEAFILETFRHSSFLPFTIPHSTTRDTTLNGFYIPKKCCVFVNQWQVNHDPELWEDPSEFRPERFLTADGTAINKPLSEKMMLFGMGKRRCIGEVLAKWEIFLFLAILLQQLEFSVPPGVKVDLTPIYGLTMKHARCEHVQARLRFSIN
# EAE = test: Experimental autoimmune encephalomyelitis; type: in vivo, C57BL/6 mice
# [3] = biological target: human ether-a-go-go (hERG) potassium channel (Homo sapiens, UniProt Q12809); test: cell-based
# CYP 2D6 = CYP 2D6 (Homo sapiens, UniProt P10635); test: CYP inhibition in human liver microsomes, substrate cocktail; details: 10 µM
# K+ efflux = test: Intracellular K+ by ICP-OES in BMDM; type: cell-based, mouse; details: LPS primed BMDM, MCC950 10–300 nM
# [4] = Stability with human liver microsomes
# [5] = Stability with mouse liver microsomes
# CYP 2C9 = CYP 2C9 (Homo sapiens, UniProt P11712); test: CYP inhibition in human liver microsomes, substrate cocktail; details: 10 µM
# TLR signalling = test: Priming / TLR signalling: BMDM pre-treated and stimulated with LPS or Poly; type: cell-based, mouse; details: for LPS-induced (TLR4) TNF-α secretion / Poly(A:U)-induced (TLR3) TNF-α secretion: BMDM, ELISA
# CYP 3A4 = CYP 3A4 (Homo sapiens, UniProt P08684); test: CYP inhibition in human liver microsomes, substrate cocktail; details: 10 µM
# [6] = LPS and Poly(dA:dT), Bayer compound 40 µM
# Sequence of NLRC4 (Q3UP24 whole entry): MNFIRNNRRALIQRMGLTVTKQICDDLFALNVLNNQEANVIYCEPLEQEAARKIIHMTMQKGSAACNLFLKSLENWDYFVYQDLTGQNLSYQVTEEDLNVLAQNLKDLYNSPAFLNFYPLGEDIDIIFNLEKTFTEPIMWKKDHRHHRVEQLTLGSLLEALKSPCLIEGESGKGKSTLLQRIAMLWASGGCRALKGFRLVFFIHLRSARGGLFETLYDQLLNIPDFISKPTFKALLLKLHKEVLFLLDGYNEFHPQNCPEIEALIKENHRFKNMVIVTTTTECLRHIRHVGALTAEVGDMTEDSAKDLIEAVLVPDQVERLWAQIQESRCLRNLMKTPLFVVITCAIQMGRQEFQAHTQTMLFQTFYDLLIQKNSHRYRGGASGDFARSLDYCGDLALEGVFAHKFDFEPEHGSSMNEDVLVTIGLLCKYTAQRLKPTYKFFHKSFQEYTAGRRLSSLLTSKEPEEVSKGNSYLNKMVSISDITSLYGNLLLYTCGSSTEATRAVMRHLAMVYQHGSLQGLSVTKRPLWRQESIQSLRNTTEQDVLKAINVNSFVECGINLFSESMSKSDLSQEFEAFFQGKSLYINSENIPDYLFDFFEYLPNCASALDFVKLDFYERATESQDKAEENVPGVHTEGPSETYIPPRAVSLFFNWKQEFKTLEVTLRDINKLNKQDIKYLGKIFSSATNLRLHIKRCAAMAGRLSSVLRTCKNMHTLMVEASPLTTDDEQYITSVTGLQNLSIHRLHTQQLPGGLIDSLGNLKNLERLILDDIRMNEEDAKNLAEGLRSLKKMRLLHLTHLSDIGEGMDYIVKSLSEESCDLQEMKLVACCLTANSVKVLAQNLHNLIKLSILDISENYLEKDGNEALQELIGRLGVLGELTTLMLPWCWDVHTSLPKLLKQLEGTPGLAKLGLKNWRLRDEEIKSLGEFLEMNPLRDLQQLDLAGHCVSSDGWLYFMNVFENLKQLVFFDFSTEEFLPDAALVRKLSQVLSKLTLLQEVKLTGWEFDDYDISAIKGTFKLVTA
# Sequence of CYP 3A4 (P08684 whole entry): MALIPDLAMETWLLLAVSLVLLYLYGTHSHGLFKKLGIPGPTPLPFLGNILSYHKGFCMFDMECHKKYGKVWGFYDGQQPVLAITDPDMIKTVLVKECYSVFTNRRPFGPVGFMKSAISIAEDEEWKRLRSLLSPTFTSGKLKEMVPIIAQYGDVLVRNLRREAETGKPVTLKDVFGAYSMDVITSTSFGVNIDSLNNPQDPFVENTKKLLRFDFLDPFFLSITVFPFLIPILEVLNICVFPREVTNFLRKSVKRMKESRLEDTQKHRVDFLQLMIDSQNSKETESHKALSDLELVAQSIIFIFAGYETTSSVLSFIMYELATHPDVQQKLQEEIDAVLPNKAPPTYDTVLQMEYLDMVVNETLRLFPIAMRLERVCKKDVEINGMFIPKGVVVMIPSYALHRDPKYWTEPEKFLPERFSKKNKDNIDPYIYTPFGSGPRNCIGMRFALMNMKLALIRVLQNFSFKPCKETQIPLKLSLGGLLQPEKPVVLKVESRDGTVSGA
# Sequence of CYP 2C19 (P33261 whole entry): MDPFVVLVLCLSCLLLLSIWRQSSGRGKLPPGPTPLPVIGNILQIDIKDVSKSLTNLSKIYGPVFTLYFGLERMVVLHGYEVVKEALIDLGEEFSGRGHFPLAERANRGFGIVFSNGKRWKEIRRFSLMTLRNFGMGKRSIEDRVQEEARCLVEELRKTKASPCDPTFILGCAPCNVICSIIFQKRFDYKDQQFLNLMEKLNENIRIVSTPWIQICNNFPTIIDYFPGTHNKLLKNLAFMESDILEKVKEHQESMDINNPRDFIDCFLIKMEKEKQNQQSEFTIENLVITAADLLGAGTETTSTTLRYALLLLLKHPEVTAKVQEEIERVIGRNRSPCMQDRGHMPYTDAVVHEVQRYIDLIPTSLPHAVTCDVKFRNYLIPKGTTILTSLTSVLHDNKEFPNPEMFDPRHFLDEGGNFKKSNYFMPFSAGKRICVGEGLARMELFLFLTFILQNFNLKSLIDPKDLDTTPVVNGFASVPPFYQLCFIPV
# Sequence of human ether-a-go-go (hERG) potassium channel (Q12809 whole entry): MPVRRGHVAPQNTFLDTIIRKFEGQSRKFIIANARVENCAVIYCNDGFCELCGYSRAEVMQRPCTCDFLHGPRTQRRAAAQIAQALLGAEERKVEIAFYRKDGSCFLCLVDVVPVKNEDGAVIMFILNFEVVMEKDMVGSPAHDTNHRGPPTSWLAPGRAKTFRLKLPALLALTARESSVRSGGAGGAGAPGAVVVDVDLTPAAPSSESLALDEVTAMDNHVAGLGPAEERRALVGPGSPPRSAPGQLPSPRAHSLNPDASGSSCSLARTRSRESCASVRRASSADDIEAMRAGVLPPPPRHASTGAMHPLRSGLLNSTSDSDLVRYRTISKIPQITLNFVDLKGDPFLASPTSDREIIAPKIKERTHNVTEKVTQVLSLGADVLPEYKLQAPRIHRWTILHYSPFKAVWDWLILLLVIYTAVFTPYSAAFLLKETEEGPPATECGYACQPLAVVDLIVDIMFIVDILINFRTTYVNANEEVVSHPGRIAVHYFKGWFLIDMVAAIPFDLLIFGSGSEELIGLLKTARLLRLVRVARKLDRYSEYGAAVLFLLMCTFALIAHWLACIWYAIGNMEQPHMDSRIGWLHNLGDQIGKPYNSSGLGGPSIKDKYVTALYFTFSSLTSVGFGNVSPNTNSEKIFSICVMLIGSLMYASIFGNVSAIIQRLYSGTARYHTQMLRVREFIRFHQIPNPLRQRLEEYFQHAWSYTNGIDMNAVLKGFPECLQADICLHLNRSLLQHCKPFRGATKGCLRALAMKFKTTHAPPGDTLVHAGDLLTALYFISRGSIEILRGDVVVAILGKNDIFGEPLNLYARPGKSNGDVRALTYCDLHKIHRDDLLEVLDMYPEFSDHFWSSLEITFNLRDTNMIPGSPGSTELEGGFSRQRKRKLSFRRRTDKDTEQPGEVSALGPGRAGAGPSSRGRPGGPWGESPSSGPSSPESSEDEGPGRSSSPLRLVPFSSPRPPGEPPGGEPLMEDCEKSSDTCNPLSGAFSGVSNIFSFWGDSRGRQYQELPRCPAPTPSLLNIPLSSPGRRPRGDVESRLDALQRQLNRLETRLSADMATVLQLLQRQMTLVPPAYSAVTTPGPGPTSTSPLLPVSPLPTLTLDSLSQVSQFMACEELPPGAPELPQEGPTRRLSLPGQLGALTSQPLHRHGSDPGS
# Sequence of CYP 2C9 (P11712 whole entry): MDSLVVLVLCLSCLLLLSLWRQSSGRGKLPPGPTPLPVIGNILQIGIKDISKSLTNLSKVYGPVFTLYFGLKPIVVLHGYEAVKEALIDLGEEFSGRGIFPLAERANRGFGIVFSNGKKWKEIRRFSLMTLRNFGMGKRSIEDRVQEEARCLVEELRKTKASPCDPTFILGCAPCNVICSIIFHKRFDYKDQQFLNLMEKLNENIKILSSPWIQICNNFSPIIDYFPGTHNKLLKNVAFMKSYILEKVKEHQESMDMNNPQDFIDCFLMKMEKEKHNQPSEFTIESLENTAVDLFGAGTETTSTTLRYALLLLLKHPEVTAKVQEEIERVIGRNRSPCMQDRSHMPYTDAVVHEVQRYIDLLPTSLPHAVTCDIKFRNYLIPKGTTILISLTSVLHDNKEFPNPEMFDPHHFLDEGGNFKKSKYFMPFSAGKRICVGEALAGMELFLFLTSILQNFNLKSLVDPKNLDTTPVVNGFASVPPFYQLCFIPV
# Sequence of CYP 2D6 (P10635 whole entry): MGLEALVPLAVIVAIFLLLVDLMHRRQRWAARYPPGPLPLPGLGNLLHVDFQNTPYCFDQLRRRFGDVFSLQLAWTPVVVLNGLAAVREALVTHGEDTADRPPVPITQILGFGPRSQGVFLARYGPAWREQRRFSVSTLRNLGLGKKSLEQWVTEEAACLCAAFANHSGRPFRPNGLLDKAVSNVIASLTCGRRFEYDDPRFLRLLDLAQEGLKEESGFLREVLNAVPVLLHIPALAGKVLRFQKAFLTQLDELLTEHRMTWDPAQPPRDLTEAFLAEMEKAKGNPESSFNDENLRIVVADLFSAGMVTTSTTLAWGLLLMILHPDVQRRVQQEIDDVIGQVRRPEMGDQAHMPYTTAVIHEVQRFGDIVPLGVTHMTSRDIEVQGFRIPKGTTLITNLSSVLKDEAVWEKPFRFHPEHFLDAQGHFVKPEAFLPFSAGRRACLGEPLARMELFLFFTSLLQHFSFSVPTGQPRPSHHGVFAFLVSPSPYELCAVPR
structure (smiles),measurement,setting,value
"O=C(O)c1ccc(OCCCc2ccc(OCCCC3CCCCC3)cc2)c(C(=O)N2CCC(C(=O)O)CC2)c1 [Bayer compound, 1-(5-carboxy-2{3-[4-(3-cyclohexylpropoxy)phenyl]propoxy}benzoyl)piperidine-4-carboxylic acid, reference compound]",IL-1β secretion,AIM2 inflammasome; [6],inhibited
same,Poly(dA:dT) stimulated caspase-1 activation,AIM2 inflammasome; Western blot,inhibited
CC(C)(O)c1coc(S(=O)(=O)[N-]C(=O)Nc2c3c(cc4c2CCC4)CCC3)c1.[Na+] [MCC950 sodium salt],solubility in aqueous solutions,Aqueous solubility,highly soluble
"CC(C)(O)c1coc(S(=O)(=O)NC(=O)Nc2c3c(cc4c2CCC4)CCC3)c1 [MCC950, 1-(1,2,3,5,6,7-hexahydro-s-indacen-4-yl)-3-[4-(1-hydroxy-1-methyl-ethyl)-furan-2-sulfonyl]urea]",serum concentrations of IL-18,NLRP1 [1],did not significantly alter
same,inhibition of CYP 2C19,CYP 2C19,less than 15%
same,NLRC4-stimulated IL-1β secretion,NLRC4,not inhibited
same,NLRC4-stimulated TNF-α secretion,NLRC4,not inhibited
same,expression of pro-IL-1β (and pro-caspase-1) in cell lysates,NLRC4; Western blot,not substantially affected
same,caspase-1 activation / IL-1β processing in response to S. typhimurium,NLRC4; Western blot,did not inhibit
same,ATP induced increase in intracellular Ca2+,Ca2+ flux,did not substantially affect
same,ASC speck formation,NLRP1 [2],not decreased
same,inhibition of CYP 1A2,CYP 1A2,less than 15%
same,EAE onset and severity (clinical scores),"EAE; 10 mg/kg i.p. day 0, 1, 2 and every 2 days thereafter",delayed the onset and reduced the severity
same,frequencies of IL-17 and IFN-γ producing CD3+ T cells in brain mononuclear cells,"EAE; day 22, vs PBS-treated mice",modestly reduced
same,IC50,[3],> 30 µM
same,inhibition of CYP 2D6,CYP 2D6,less than 15%
same,IL-1β secretion,AIM2 inflammasome; [6],did not attenuate
same,TNF-α secretion,AIM2 inflammasome; [6],did not attenuate
same,"K+ efflux triggered by nigericin, ATP and SiO2",K+ efflux,did not prevent
same,compound remaining after 60 min,[4],more than 70%
same,compound remaining after 60 min,[5],more than 70%
same,inhibition of CYP 2C9,CYP 2C9,less than 15%
same,LPS stimulated induction of NLRP3 and pro-IL-1β,"TLR signalling; BMDM pre-treated, LPS 4 h, Western blot",not affected
same,LPS-induced (TLR4) TNF-α secretion,TLR signalling,did not affect
same,Poly(A:U)-induced (TLR3) TNF-α secretion,TLR signalling,did not affect
same,inhibition of CYP 3A4,CYP 3A4,less than 15%
"C=C1C(=O)O[C@H]2[C@H]1CC/C(C)=C/CC[C@@]1(C)O[C@@H]21 [parthenolide, reference compound]",NLRC4-stimulated IL-1β secretion,NLRC4,attenuated
same,NLRC4-stimulated TNF-α secretion,NLRC4,attenuated
same,expression of pro-IL-1β (and pro-caspase-1) in cell lysates,NLRC4; Western blot,attenuated
same,LPS-induced (TLR4) TNF-α secretion,TLR signalling,abrogated
same,Poly(A:U)-induced (TLR3) TNF-α secretion,TLR signalling,abrogated
